Type in all cases: cell-based
In assay [1] the test system is COLO205 (colon). In words: Inhibition of cell proliferation, CellTiter-Glo, COLO205. The following applies: Homo sapiens, COLO 205, 72 h. The method in brief:
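Exponentially growing COLO205 cells in medium with 10% FBS were plated below 2000 cells/well at 37 °C, 5% CO2. Untreated wells served as controls.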

The test system of assay [2] is NCI-H929 (multiple myeloma). In words: Inhibition of cell proliferation, CellTiter-Glo, NCI-H929. The following applies: Homo sapiens, 72 h. The method in brief:
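Cells were grown in medium with 10% FBS at 37° C, 5% CO2. Cell number was read as CellTiter-Glo luminescence (cellular ATP), with untreated wells as control.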

The target in assay [3] is T1, human IGF-1R (NIH-3T3 cells over expressing human IGF-1R) (Homo sapiens, UniProt P08069).
T1 construct: expressed in transfected cells; host or cells: NIH-3T3 (mouse fibroblasts)
In words: IGF-1R cellular autophosphorylation (DELFIA). The following applies: IGF-1 stimulated. An outline of the steps: (§1)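 Read-out: DELFIA on lysates, receptor-specific capture antibody plus europium-labelled anti-phosphotyrosine, reported as % of IGF-1- or insulin-stimulated signal. Transfected NIH-3T3 cells got compound (30 uM–1.5 nM, 2 h) before a 15 min ligand pulse: IGF-1 30 ng/mL for IGF-1R, insulin 3 ug/mL for IR.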

For assay [4], the target named is T2, IR (NIH-3T3 cells over expressing human IGF-1R or IR) (Homo sapiens, UniProt P06213).
T2 construct: expressed in transfected cells; host or cells: NIH-3T3 (mouse fibroblasts)
In words: IR cellular autophosphorylation (DELFIA). The following applies: NIH-3T3 cells over expressing IR, insulin stimulated. An outline of the steps: as §1

For 16 molecules, IC50 results are on record in patent US20100216779A1 (GLAXOSMITHKLINE LLC, priority 2007, published 2010).

Some results are limits rather than exact numbers.

T1 sequence (P08069 31-1367): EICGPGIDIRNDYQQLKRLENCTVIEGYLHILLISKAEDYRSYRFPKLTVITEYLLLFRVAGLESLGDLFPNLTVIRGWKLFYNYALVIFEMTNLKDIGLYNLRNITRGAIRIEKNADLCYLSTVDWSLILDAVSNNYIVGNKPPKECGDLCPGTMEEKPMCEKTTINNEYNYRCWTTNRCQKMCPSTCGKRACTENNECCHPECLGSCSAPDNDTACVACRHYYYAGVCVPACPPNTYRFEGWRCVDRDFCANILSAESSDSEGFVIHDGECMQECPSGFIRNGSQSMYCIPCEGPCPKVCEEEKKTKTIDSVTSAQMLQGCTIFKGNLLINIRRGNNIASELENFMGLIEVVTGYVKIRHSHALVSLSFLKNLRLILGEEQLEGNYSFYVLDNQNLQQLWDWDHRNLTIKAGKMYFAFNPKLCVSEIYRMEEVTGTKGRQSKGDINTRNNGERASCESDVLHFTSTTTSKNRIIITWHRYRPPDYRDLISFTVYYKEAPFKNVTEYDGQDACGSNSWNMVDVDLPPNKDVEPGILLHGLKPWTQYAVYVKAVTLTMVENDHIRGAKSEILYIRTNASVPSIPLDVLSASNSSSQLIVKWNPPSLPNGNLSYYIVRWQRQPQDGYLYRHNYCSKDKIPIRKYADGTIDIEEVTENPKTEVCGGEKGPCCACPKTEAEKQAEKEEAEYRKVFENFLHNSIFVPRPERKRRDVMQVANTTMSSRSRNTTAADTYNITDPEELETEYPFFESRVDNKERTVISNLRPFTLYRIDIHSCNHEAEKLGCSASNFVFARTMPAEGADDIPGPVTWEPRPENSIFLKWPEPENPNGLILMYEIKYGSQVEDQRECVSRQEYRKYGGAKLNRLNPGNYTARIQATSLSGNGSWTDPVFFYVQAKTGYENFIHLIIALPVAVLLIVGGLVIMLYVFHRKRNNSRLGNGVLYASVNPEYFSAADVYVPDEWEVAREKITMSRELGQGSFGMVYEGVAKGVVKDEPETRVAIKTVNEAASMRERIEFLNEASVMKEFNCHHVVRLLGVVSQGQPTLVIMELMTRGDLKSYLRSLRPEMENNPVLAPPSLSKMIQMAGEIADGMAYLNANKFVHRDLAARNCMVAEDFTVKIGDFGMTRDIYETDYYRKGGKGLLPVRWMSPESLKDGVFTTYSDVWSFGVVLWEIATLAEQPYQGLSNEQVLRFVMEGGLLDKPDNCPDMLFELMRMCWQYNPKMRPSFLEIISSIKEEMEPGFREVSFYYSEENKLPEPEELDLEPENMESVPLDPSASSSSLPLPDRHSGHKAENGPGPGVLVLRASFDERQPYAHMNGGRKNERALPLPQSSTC
T2 sequence (P06213 28-1382): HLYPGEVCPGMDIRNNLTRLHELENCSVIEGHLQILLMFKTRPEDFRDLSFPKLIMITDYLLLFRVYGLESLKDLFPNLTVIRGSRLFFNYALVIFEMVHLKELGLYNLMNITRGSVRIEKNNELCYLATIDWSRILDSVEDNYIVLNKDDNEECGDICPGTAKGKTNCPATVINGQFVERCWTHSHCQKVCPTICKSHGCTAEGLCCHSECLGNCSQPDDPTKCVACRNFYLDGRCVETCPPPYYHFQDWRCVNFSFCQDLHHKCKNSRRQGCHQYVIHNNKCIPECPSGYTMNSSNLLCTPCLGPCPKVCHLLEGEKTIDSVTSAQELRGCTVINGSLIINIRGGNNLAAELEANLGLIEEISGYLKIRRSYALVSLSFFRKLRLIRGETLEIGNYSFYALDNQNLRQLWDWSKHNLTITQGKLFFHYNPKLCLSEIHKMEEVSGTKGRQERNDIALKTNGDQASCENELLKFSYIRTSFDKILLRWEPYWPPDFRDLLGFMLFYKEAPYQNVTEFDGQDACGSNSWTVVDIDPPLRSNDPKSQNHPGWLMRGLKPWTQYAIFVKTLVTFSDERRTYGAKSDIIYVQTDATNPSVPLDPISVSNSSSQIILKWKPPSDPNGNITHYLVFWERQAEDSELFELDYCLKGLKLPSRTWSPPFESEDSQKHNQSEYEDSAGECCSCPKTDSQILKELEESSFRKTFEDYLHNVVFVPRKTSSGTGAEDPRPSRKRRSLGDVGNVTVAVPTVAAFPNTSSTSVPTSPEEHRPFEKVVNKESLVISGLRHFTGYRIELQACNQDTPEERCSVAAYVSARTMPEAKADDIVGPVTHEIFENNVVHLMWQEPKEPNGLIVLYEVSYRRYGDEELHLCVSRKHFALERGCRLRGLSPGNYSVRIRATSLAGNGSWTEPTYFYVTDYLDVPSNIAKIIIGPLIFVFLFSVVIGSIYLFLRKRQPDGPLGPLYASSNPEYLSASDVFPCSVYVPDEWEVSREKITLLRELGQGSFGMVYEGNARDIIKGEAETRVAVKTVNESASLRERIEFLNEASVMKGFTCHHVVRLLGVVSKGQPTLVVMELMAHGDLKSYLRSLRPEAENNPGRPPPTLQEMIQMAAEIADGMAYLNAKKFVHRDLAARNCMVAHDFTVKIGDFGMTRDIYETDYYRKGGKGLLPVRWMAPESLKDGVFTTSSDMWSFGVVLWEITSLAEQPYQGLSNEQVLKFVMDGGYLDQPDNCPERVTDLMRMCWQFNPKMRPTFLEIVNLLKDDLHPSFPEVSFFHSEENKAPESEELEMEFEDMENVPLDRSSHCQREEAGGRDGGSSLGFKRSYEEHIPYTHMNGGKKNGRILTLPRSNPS

As for `CCOc1ccc(-c2nc3ccccn3c2-c2ccnc(Nc3cc(C)c(N4CCCN(CCS(C)(=O)=O)CC4)cc3OC)n2)cc1C(=O)Nc1c(F)cccc1F` [Example 203, N-(2,6-difluorophenyl)-2-(ethyloxy)-5-(3-{2-[(5-methyl-2-(methyloxy)-4-{4-[2-(methylsulfonyl)ethyl)hexahydro-1H-1,4-diazepin-1-yl]phenyl)amino]-4-pyrimidinyl}imidazo[1,2-a]pyridin-2-yl)benzamide], the IC50 in assay [1] was less than 250 nM; in assay [2], less than 250 nM; in assay [3], less than 100 nM; in assay [4] it was less than 100 nM.

For the molecule `CCOc1ccc(-c2nc3ccccn3c2-c2ccnc(Nc3ccc(N4CCC(CCS(C)(=O)=O)CC4)cc3OC)n2)cc1C(=O)Nc1c(F)cccc1F` [Example 200, N-(2,6-difluorophenyl)-2-(ethyloxy)-5-(3-{2-[(2-(methyloxy)-4-{4-[2-(methylsulfonyl)ethyl]-1-piperidinyl}phenyl)amino]-4-pyrimidinyl}imidazo[1,2-a]pyridin-2-yl)benzamide], the half-maximal inhibitory concentration (IC50) in assay [1] is less than 250 nM; in assay [2] it was less than 250 nM; in assay [3], less than 100 nM; in assay [4], less than 100 nM.

As for `CCOc1cc(N2CCC(N3CCN(CCS(C)(=O)=O)CC3)CC2)ccc1Nc1nccc(-c2c(-c3cccc(C(=O)Nc4c(F)cccc4F)c3)nc3ccccn23)n1` [Example 119, N-(2,6-difluorophenyl)-3-[3-(2-{[2-(ethyloxy)-4-(4-{4-[2-(methylsulfonyl)ethyl]-1-piperazin-yl]-1-piperidinyl)phenyl]amino}-4-pyrimidinyl)imidazo[1,2-a]pyridin-2-yl]benzamide], the IC50 was 250 to 1000 nM in assay [1], less than 250 nM in assay [2], less than 100 nM in assay [3] and less than 100 nM in assay [4].

Consider `CCCN1CCC(c2cc(OC)c(Nc3nccc(-c4c(-c5cccc(C(=O)Nc6c(F)cccc6F)c5)nc5ccccn45)n3)cc2C)CC1` [Example 159, N-(2,6-difluorophenyl)-3-[3-(2-{[5-methyl-2-(methyloxy)-4-(1-propyl-4-piperidinyl)phenyl]amino}-4-pyrimidinyl)imidazo[1,2-a]pyridin-2-yl]benzamide], for which the half-inhibitory concentration (IC50) was 250 to 1000 nM in assay [1], less than 250 nM in assay [2], less than 100 nM in assay [3] and less than 100 nM in assay [4].

As to `COc1cc(N2CCC(N3CCN(CCF)CC3)CC2)c(C)cc1Nc1nccc(-c2c(-c3cccc(C(=O)Nc4c(F)cccc4F)c3)nc3ccccn23)n1` [Example 113, N-(2,6-difluorophenyl)-3-[3-(2-{[4-{4-[4-(2-fluoroethyl)-1-piperazinyl]-1-piperidinyl}-5-methyl-2-(methyloxy)phenyl]amino]-4-pyrimidinyl)imidazo[1,2-a]pyridin-2-yl]benzamide], the IC50 in assay [1] is more than 1000 nM; in assay [2], 250 to 1000 nM; in assay [3], less than 100 nM; in assay [4] it was less than 100 nM.

Consider `CCOc1ccc(-c2nc3ccccn3c2-c2ccnc(Nc3ccc(N4CCC(N5CCN(CCF)CC5)CC4)cc3OC)n2)cc1C(=O)Nc1c(F)cccc1F` [Example 63, N-(2,6-difluorophenyl)-2-(ethyloxy)-5-[3-(2-{[4-{4-[4-(2-fluoroethyl)-1-piperazinyl]-1-piperidinyl}-2-(methyloxy)phenyl]amino}-4-pyrimidinyl)imidazo[1,2-a]pyridin-2-yl]benzamide], for which the IC50 is 250 to 1000 nM in assay [1], less than 250 nM in assay [2], less than 100 nM in assay [3] and less than 100 nM in assay [4].

As for `CCOc1cc(N2CCN(CCS(C)(=O)=O)CC2)ccc1Nc1nccc(-c2c(-c3ccc(OC)c(C(=O)Nc4c(F)cccc4F)c3)nc3ccccn23)n1` [Example 143, N-(2,6-difluorophenyl)-5-(3-{2-[(2-(ethyloxy)-4-{4-[2-(methylsulfonyl)ethyl)-1-piperazinyl}phenyl)amino]-4-pyrimidinyl}imidazo[1,2-a]pyridin-2-yl)-2-(methyloxy)benzamide], the IC50 in assay [1] was 250 to 1000 nM; in assay [2] it was less than 250 nM; in assay [3], less than 100 nM; in assay [4], less than 100 nM.

Consider `COCCN1CCN(c2ccc(Nc3nccc(-c4c(-c5cccc(C(=O)Nc6c(F)cccc6F)c5)nc5ccccn45)n3)c(OC)c2)CC1` [Example 240, N-(2,6-difluorophenyl)-3-(3-{2-[(2-(methyloxy)-4-{4-[2-(methyloxy)ethyl]-1-piperazinyl}phenyl)amino]-4-pyrimidinyl}imidazo[1,2-a]pyridin-2-yl)benzamide], for which the IC50 in assay [1] is 250 to 1000 nM; in assay [2], 250 to 1000 nM; in assay [3], less than 100 nM; in assay [4] it was less than 100 nM.

Regarding `COc1cc(N2CCC(N3CCC(C(F)(F)F)CC3)CC2)ccc1Nc1nccc(-c2c(-c3cccc(C(=O)Nc4c(F)cccc4F)c3)nc3ccccn23)n1` [Example 52, N-(2,6-difluorophenyl)-3-{3-[2-({2-(methyloxy)-4-[4-(trifluoromethyl)-1,4′-bipiperidin-1′-yl]phenyl}amino)-4-pyrimidinyl]imidazo[1,2-a]pyridin-2-yl}benzamide], the IC50 in assay [1] was 250 to 1000 nM; in assay [2] it was 250 to 1000 nM; in assay [3] it was less than 100 nM; in assay [4], 100 to 500 nM.

With `COc1cc(N2CCN(CCS(C)(=O)=O)[C@@H](C(C)C)C2)ccc1Nc1nccc(-c2c(-c3ccc(OC)c(C(=O)Nc4c(F)cccc4F)c3)nc3ccccn23)n1` [Example 250, N-(2,6-difluorophenyl)-5-[3-(2-{[4-{(3S)-3-(1-methylethyl)-4-[2-(methylsulfonyl)ethyl]-1-piperazinyl}-2-(methyloxy)phenyl]amino}-4-pyrimidinyl)imidazo[1,2-a]pyridin-2-yl]-2-(methyloxy)benzamide], the IC50 in assay [1] was 250 to 1000 nM; in assay [2] it was less than 250 nM; in assay [3], less than 100 nM; in assay [4], less than 100 nM.

For the molecule `COc1cc(N2CCC(CCS(C)(=O)=O)CC2)c(C)cc1Nc1nccc(-c2c(-c3ccc(OC)c(C(=O)Nc4c(F)cccc4F)c3)nc3ccccn23)n1` [Example 230, N-(2,6-difluorophenyl)-5-(3-{2-[(5-methyl-2-(methyloxy)-4-{4-[2-(methylsulfonyl)ethyl]-1-piperidinyl}phenyl)amino]-4-pyrimidinyl}imidazo[1,2-a]pyridin-2-yl)-2-(methyloxy)benzamide], the IC50 is less than 250 nM in assay [1], less than 250 nM in assay [2], less than 100 nM in assay [3] and less than 100 nM in assay [4].

For the molecule `CCOc1cc(N2CCN(CCS(C)(=O)=O)CC2)c(C)cc1Nc1nccc(-c2c(-c3cccc(C(=O)Nc4c(F)cccc4F)c3)nc3ccccn23)n1` [Example 246, N-(2,6-difluorophenyl)-3-(3-{2-[(2-(ethyloxy)-5-methyl-4-{4-[2-(methylsulfonyl)ethyl]-1-piperazinyl}phenyl)amino]-4-pyrimidinyl}imidazo[1,2-a]pyridin-2-yl)benzamide], the concentration for half-maximal inhibition (IC50) in assay [1] was less than 250 nM; in assay [2] it was less than 250 nM; in assay [3], less than 100 nM; in assay [4], less than 100 nM.

As for `CCCN1CCC(c2cc(OC)c(Nc3nccc(-c4c(-c5ccc(OCC)c(C(=O)Nc6c(F)cccc6F)c5)nc5ccccn45)n3)cc2C)CC1` [Example 158, N-(2,6-difluorophenyl)-2-(ethyloxy)-5-[3-(2-{[5-methyl-2-(methyloxy)-4-(1-propyl-4-piperidinyl)phenyl]amino}-4-pyrimidinyl)imidazo[1,2-a]pyridin-2-yl]benzamide], the IC50 in assay [1] is less than 250 nM; in assay [2] it was less than 250 nM; in assay [3], less than 100 nM; in assay [4] it was less than 100 nM.

In the case of `COc1cc(N2CCC(CCS(C)(=O)=O)CC2)ccc1Nc1nccc(-c2c(-c3ccc(OC)c(C(=O)Nc4c(F)cccc4F)c3)nc3ccccn23)n1` [Example 201, N-(2,6-difluorophenyl)-2-(methyloxy)-5-(3-{2-[(2-(methyloxy)-4-{4-[2-(methylsulfonyl)ethyl]-1-piperidinyl}phenyl)amino]-4-pyrimidinyl}imidazo[1,2-a]pyridin-2-yl)benzamide], the IC50 in assay [1] is 250 to 1000 nM; in assay [2] it was less than 250 nM; in assay [3] it was less than 100 nM; in assay [4], less than 100 nM.

Take `CCOc1cc(N2CCN(C(C)C)CC2)ccc1Nc1nccc(-c2c(-c3ccc(OC)c(C(=O)Nc4c(F)cccc4F)c3)nc3ccccn23)n1` [Example 172, N-(2,6-difluorophenyl)-5-{3-[2-({2-(ethyloxy)-4-[4-(1-methylethyl)-1-piperazinyl]phenyl}-amino)-4-pyrimidinyl]imidazo[1,2-a]pyridin-2-yl}-2-(methyloxy)benzamide]: the IC50 in assay [1] is 250 to 1000 nM; in assay [2], less than 250 nM; in assay [3], less than 100 nM; in assay [4], less than 100 nM.

Regarding `CCCN1CCN(c2ccc(Nc3nccc(-c4c(-c5cccc(C(=O)Nc6c(F)cccc6F)c5)nc5ccccn45)n3)c(OCC)c2)CC1` [Example 153, N-(2,6-difluorophenyl)-3-[3-(2-{[2-(ethyloxy)-4-(4-propyl-1-piperazinyl)phenyl]amino}-4-pyrimidinyl)imidazo[1,2-a]pyridin-2-yl]benzamide], the IC50 in assay [1] was 250 to 1000 nM; in assay [2], 250 to 1000 nM; in assay [3], 100 to 500 nM; in assay [4] it was less than 100 nM.
